Source: paper PMC4648050, “Discovery of Inhibitors of Trypanosoma brucei by Phenotypic Screening of a Focused Protein Kinase Library” (Chemmedchem, 2015)

Experiments:
Type in all cases: biochemical, human/mammalian
Conditions in all cases: compound at 10 μM, read-out: % of activity respect of the control
p38g MAPK = molecular target: T1, p38g MAPK (Homo sapiens, UniProt P53778); test: Kinase panel: p38g MAPK
T1 sequence (P53778 1-367): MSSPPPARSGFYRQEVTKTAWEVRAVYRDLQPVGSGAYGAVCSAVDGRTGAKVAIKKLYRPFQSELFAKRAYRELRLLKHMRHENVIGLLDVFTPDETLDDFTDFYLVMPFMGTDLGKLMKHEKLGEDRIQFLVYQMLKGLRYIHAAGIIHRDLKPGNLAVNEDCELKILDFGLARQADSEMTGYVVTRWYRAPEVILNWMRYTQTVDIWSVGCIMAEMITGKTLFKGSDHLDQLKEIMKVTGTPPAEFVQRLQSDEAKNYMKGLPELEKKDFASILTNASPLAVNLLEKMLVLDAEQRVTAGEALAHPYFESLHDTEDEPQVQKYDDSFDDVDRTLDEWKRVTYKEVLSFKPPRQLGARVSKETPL
Protocol: (§1) The DDU kinase-focused compound set contains lead-like scaffolds that are designed to target protein kinases; they have kinase hinge binding motifs. Four of the 1H-imidazopyrazinones were screened against a human/mammalian kinase panel at the University of Dundee (http://www.kinase-screen.mrc.ac.uk) at a concentration of 10 μM. At the time of testing the panel contained 79 mammalian kinases selected to provide a broad coverage of the mammalian kinome (∼500 kinases in the human genome).[3] None of the compounds were active against any of the kinases at 10 μM.

PKBb = PKBb (Homo sapiens, UniProt P31751); test: Kinase panel: PKBb
Protocol: as §1

IKK epsilon (14231) = molecular target: T2, IKK epsilon (14231) (Homo sapiens, UniProt Q14164); test: Kinase panel: IKK epsilon (14231)
T2 sequence (Q14164 1-716): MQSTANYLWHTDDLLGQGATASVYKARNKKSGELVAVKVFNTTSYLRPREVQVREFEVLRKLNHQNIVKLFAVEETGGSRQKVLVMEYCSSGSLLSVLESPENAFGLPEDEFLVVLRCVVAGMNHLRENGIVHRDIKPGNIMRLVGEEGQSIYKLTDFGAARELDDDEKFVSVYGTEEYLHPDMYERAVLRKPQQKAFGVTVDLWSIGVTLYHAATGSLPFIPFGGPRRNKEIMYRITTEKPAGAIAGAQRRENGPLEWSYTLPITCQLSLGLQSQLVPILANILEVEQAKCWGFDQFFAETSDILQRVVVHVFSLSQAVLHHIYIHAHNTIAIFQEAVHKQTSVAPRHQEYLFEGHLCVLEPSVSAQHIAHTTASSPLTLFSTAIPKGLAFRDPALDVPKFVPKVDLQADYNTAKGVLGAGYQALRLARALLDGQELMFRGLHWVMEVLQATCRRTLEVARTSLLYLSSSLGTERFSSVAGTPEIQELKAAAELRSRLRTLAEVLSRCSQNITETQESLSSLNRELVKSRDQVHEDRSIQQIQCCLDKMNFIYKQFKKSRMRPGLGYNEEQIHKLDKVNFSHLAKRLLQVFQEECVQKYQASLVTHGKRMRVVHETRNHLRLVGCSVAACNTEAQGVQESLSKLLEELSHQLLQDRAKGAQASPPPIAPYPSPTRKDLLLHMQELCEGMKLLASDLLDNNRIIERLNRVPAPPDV
Protocol: as §1

PIM2 = PIM2 (Homo sapiens, UniProt Q9P1W9); test: Kinase panel: PIM2
Protocol: as §1

p38s MAPK = molecular target: T3, p38s MAPK (Homo sapiens, UniProt O15264); test: Kinase panel: p38s MAPK
T3 sequence (O15264 1-365): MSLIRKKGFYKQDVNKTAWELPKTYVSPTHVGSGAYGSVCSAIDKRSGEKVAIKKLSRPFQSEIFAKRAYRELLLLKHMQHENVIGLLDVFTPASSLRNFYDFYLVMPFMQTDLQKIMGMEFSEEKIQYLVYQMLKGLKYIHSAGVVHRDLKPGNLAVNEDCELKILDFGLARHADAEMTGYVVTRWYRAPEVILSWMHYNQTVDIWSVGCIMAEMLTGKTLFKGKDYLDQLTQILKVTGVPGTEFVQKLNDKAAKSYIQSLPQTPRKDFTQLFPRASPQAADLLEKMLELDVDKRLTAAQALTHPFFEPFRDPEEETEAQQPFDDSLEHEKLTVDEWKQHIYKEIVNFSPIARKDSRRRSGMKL
Protocol: as §1

PDK1 = molecular target: T4, PDK1 (Homo sapiens, UniProt O15530); test: Kinase panel: PDK1
T4 sequence (O15530 1-556): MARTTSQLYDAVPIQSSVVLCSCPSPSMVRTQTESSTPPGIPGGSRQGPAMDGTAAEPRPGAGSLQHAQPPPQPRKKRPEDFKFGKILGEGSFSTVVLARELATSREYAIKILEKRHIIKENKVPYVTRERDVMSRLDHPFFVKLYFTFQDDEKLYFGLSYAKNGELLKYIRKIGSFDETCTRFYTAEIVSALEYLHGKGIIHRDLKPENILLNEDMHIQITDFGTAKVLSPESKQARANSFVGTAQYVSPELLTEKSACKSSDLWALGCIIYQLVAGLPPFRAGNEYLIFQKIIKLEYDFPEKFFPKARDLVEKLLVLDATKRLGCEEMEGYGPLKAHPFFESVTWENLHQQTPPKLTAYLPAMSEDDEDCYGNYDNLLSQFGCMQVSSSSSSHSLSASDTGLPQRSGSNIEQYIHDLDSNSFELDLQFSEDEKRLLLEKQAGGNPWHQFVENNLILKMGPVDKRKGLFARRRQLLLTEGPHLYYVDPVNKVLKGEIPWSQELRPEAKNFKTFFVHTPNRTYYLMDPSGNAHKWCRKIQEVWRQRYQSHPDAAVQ
Protocol: as §1

CAMK1 = CAMK1 (Homo sapiens, UniProt Q14012); test: Kinase panel: CAMK1
Protocol: as §1

NEK6 = NEK6 (Homo sapiens, UniProt Q9HC98); test: Kinase panel: NEK6
Protocol: as §1

CK2 = CK2 (Homo sapiens, UniProt P68400); test: Kinase panel: CK2
Protocol: as §1

Src = Src (Homo sapiens, UniProt P12931); test: Kinase panel: Src
Protocol: as §1

Chain of PKBb (P31751 whole entry): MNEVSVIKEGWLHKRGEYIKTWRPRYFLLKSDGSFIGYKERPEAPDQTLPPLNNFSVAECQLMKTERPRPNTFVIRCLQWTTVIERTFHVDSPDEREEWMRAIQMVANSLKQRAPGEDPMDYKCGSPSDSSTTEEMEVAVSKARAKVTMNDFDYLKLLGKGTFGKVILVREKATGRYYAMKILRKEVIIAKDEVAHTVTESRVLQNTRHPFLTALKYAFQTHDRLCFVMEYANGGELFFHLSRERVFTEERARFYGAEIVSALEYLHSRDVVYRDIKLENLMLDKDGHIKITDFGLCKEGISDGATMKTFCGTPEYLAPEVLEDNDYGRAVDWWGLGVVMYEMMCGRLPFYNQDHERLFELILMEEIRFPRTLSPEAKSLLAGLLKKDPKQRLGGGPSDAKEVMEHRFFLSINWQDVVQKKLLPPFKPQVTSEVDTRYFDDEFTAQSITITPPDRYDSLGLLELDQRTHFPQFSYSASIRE
Chain of PIM2 (Q9P1W9 whole entry): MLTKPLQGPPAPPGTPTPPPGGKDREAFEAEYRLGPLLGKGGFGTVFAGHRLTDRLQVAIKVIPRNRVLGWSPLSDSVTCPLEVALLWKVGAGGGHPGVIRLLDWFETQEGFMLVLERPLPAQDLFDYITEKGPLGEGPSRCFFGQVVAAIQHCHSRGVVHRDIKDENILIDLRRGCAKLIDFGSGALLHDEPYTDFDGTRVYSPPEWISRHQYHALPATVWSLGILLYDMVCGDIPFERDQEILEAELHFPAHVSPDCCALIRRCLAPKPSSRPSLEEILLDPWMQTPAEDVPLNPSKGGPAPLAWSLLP
Chain of NEK6 (Q9HC98 whole entry): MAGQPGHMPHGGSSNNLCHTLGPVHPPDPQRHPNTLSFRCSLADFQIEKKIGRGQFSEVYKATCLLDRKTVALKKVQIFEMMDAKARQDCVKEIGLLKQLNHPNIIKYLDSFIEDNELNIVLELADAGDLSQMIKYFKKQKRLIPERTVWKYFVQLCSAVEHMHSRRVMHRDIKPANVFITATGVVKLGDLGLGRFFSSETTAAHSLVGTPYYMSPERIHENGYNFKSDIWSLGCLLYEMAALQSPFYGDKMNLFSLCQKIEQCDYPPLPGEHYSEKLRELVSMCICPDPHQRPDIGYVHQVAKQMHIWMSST
Chain of CK2 (P68400 whole entry): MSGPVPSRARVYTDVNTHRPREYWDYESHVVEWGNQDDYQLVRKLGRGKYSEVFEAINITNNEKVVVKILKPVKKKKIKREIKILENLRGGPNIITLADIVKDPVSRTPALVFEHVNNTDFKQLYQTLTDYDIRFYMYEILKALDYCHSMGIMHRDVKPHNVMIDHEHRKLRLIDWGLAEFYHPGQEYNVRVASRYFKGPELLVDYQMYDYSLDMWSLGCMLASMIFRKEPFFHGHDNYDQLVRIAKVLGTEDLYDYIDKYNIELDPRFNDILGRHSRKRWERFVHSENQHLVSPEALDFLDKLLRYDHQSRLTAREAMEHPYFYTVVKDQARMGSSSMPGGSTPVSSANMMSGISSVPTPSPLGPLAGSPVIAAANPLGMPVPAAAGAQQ
Chain of Src (P12931 whole entry): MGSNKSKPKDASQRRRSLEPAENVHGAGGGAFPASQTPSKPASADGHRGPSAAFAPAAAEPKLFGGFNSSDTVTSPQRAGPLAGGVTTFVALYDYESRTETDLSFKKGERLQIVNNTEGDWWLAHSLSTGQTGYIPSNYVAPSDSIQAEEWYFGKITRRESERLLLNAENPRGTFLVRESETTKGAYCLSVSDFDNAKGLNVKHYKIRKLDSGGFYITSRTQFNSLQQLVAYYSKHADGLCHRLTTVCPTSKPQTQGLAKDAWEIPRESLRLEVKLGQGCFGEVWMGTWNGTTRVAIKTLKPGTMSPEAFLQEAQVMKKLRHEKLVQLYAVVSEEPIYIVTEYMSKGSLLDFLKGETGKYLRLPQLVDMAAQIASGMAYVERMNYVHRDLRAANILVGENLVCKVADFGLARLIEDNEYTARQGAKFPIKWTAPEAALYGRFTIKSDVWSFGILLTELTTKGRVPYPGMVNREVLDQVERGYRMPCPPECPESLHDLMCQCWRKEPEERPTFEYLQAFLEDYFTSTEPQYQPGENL
Chain of CAMK1 (Q14012 whole entry): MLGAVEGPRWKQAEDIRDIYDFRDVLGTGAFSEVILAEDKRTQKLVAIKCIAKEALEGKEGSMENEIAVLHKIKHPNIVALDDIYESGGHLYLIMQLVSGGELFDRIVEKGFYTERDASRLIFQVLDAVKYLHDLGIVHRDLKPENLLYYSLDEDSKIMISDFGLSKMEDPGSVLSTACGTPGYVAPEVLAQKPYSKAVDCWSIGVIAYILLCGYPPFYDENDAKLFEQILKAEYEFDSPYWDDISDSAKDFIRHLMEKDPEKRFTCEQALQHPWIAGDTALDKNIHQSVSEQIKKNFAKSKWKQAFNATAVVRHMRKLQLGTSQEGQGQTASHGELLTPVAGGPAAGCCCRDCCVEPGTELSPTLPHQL

Row | SMILES | remaining activity at 10 µM (p38g MAPK) | remaining activity at 10 µM (PKBb) | remaining activity at 10 µM (IKK epsilon (14231)) | remaining activity at 10 µM (PIM2) | remaining activity at 10 µM (p38s MAPK) | remaining activity at 10 µM (PDK1) | remaining activity at 10 µM (CAMK1) | remaining activity at 10 µM (NEK6) | remaining activity at 10 µM (CK2) | remaining activity at 10 µM (Src)
1 | CC(c1ccccc1)n1c(=O)[nH]c2ncc(-c3ccc(F)cc3)nc21 (stereo not shown) [Compound 1] | 98% | 117% | 124% | 113% | 108% | 99% | 87% | 89% | 107% | 80%
2 | O=c1[nH]c2ncc(-c3ccc(F)cc3)nc2n1CC1CC1 [Compound 10] | 94% | 120% | 103% | 111% | 91% | 96% | 83% | 86% | 105% | 98%
3 | O=c1[nH]c2ncc(-c3ccc(F)cc3)nc2n1C1CCCCC1 [Compound 12, 1-Cyclohexyl-6-(4-fluorophenyl)-1H-imidazo[4,5-b]pyrazin-2(3H)-one] | 98% | 106% | 98% | 111% | 76% | 98% | 88% | 94% | 111% | 94%
4 | C[C@H](c1ccccc1)n1c(=O)[nH]c2ncc(-c3ccccc3)nc21 [Compound 14, (R)-6-Phenyl-1-(1-phenylethyl)-1H-imidazo[4,5-b]pyrazin-2(3H)-one] | 91% | 100% | 87% | 96% | 77% | 91% | 72% | 80% | 105% | 70%
